Results: the supplement of paper PMC5579334
± gives the standard deviation of the averaged measurements.

Assays:
[1] = system: STS26T; experiment: drug sensitivity score (DSS, CellTox-Green cytotoxicity, 72 h) (DSS (dimensionless)); higher = more cytotoxic; extreme values may be limits of the assay
Summary of the method: (§1)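 MPNST cell lines and primary human Schwann cells were incubated 72 h at 37 °C in 384-well plates holding five 10-fold compound dilutions. CellTox-Green was added before seeding at a final 1:1000 dilution and reported fluorescence from DNA released by disrupted cells. Signals were scaled to vehicle and positive-control wells, and cultures failing plate quality control were dropped. Drug sensitivity score and relative IC50 come from four-parameter logistic fits, with IC50 censored at the top concentration.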

[2] = system: HS-PSS; experiment: as above
Summary of the method: as §1

[3] = system: ST8814; experiment: as above
Summary of the method: as §1

[4] = system: HSC1 (primary human Schwann cells); experiment: as above
Summary of the method: as §1

[5] = system: HSC2 (primary human Schwann cells); experiment: as above
Summary of the method: as §1

[6] = system: S1507-2; experiment: as above
Summary of the method: as §1

[7] = system: S462; experiment: drug sensitivity score (DSS, CellTiter-Glo viability, 72 h) (DSS (dimensionless)); higher = more sensitive; extreme values may be limits of the assay
Summary of the method: (§2)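 MPNST cell lines and primary human Schwann cells (750–1000 cells per well) went into 384-well plates preprinted with each compound at five concentrations in 10-fold steps. Plates were incubated 72 h at 37 °C, 5% CO2. Viability was read as CellTiter-Glo ATP luminescence, scaled between vehicle and positive-control wells, with duplicates averaged where present. Percent inhibition is at the top concentration; drug sensitivity score and relative IC50 (censored at top concentration) come from four-parameter logistic fits.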

[8] = system: HS-Sch-2; experiment: as above
Summary of the method: as §2

[9] = system: STS26T; experiment: as above
Summary of the method: as §2

[10] = system: HS-PSS; experiment: as above
Summary of the method: as §2

[11] = system: ST8814; experiment: as above
Summary of the method: as §2

[12] = system: HSC1 (primary human Schwann cells); experiment: as above
Summary of the method: as §2

[13] = system: YST-1; experiment: as above
Summary of the method: as §2

[14] = system: HSC2 (primary human Schwann cells); experiment: as above
Summary of the method: as §2

[15] = system: S1507-2; experiment: as above
Summary of the method: as §2

[16] = system: S462; experiment: % inhibition of CellTiter-Glo viability at highest tested concentration (72 h), relative to DMSO and benzethonium chloride controls; higher = more inhibition
Summary of the method: as §2

[17] = system: HS-Sch-2; experiment: as above
Summary of the method: as §2

[18] = system: STS26T; experiment: as above
Summary of the method: as §2

[19] = system: HS-PSS; experiment: as above
Summary of the method: as §2

[20] = system: ST8814; experiment: as above
Summary of the method: as §2

[21] = system: HSC1 (primary human Schwann cells); experiment: as above
Summary of the method: as §2

[22] = system: YST-1; experiment: as above
Summary of the method: as §2

[23] = system: HSC2 (primary human Schwann cells); experiment: as above
Summary of the method: as §2

[24] = system: S1507-2; experiment: as above
Summary of the method: as §2

| Structure (SMILES) | drug sensitivity score [1] | drug sensitivity score [2] | drug sensitivity score [3] | drug sensitivity score [4] | drug sensitivity score [5] | drug sensitivity score [6] | drug sensitivity score [7] | drug sensitivity score [8] | drug sensitivity score [9] | drug sensitivity score [10] | drug sensitivity score [11] | drug sensitivity score [12] | drug sensitivity score [13] | drug sensitivity score [14] | drug sensitivity score [15] | % inhibition [16] [%] | % inhibition [17] [%] | % inhibition [18] [%] | % inhibition [19] [%] | % inhibition [20] [%] | % inhibition [21] [%] | % inhibition [22] [%] | % inhibition [23] [%] | % inhibition [24] [%] |
| --- | --- | --- | --- | --- | --- | --- | --- | --- | --- | --- | --- | --- | --- | --- | --- | --- | --- | --- | --- | --- | --- | --- | --- | --- |
| CCC/C=C/C=C/C(=O)O[C@H]1/C(=C/C(=O)OC)C[C@H]2C[C@H]([C@@H](C)O)OC(=O)C[C@H](O)C[C@@H]3C[C@H](OC(C)=O)C(C)(C)[C@](O)(C[C@@H]4C/C(=C/C(=O)OC)C[C@H](/C=C/C(C)(C)[C@]1(O)O2)O4)O3 [Bryostatin 1] (max concentration tested 100 nM) | 0 | 0 | 0 | 0 | 0 | 2.29 ± 3.2 | 1.37 ± 0.77 | 7.06 | 2.82 | 1.21 | 0 | 0 | 0 | 0 | 0.762 ± 1.1 | 24.9 ± 3.1 | 19.4 | 20.4 | 11.2 | -11.8 | -11.5 | 7.32 | -14.2 | 21.1 ± 2.6 |
| O=NN(CCCl)C(=O)NCCCl [Carmustine] (max concentration tested 10000 nM) | 0 | 0 | 0 | 0 | 0 | 0.439 ± 0.62 | 0 | 0 | 0 | 0.02 | 0 | 0 | 0 | 0 | 0 | -7.97 ± 1.3 | 2.86 | -1.28 | 10.6 | -3.77 | 0.41 | 1.73 | -7.14 | -5.49 ± 3.8 |
| CC(C)(C)Cn1c(N)nc2ccc(-c3[nH]c(C(C)(C)C)nc3-c3ccc(F)cc3)nc21 [Ralimetinib] (max concentration tested 10000 nM) | 0 | 0 | 0 | 0 | 0 | 0 | 0.51 ± 0.72 | 2.8 | 1.33 | 1.76 | 2.03 | 2.2 | 7.83 | 3.4 | 2.27 ± 0.73 | 13.4 ± 7.5 | 54.9 | 28.7 | 45.7 | 28.2 | 34.9 | 41.8 | 34 | 33.8 ± 6.8 |
| C[C@]12O[C@H](C[C@]1(O)CO)n1c3ccccc3c3c4c(c5c6ccccc6n2c5c31)CNC4=O [Lestaurtinib] (max concentration tested 1000 nM) | 0.547 | 0 | 1.63 | 0.556 | 0.0333 | 1.52 ± 2.1 | 11.7 ± 0.16 | 7.66 | 5.07 | 5.63 | 6.44 | 11.2 | 3.41 | 13.2 | 9.04 ± 0.52 | 96.6 ± 1.5 | 68.4 | 54.5 | 45.7 | 62.3 | 54.4 | 26.8 | 51.8 | 76.7 ± 2.5 |
| O=C(CCCCCCC(=O)Nc1ccc([C@H]2O[C@@H](CSc3nc(-c4ccccc4)c(-c4ccccc4)o3)C[C@@H](c3ccc(CO)cc3)O2)cc1)NO [Tubacin] (max concentration tested 10000 nM) | 3.25 | 0.31 | 2.33 | 0 | 0 | 0.0428 ± 0.06 | 3.54 ± 1.2 | 3.9 | 3.13 | 4.53 | 3.74 | 3.73 | 4.41 | 3.24 | 3.73 ± 1 | 64.9 ± 20 | 63.7 | 60.2 | 48 | 64.2 | 70 | 56.1 | 56.6 | 67.9 ± 7.1 |
| COc1cc(Nc2ncc3c(n2)-c2ccc(Cl)cc2C(c2c(F)cccc2OC)=NC3)ccc1C(=O)O [Alisertib] (max concentration tested 10000 nM) | 18.8 | 0 | 7.04 | 0 | 0 | 4.28 ± 3.2 | 18.8 ± 1.3 | 11.3 | 14.9 | 3.93 | 10.5 | 16.7 | 15 | 17.5 | 11.77 ± 0.033 | 59.1 ± 1 | 64.5 | 58.4 | 44.7 | 59.4 | 65.5 | 47.5 | 57.6 | 50.5 ± 5.3 |
| COc1c(C)cnc(Cn2cnc3c(Cl)nc(N)nc32)c1C [BIIB021] (max concentration tested 10000 nM) | 11.8 | 5.44 | 9.2 | 20 | 19.7 | 15.8 ± 2.9 | 20.083 ± 0.0076 | 24.5 | 16.9 | 14.4 | 17.8 | 16.2 | 15 | 17.6 | 18.1 ± 1.3 | 97 ± 1.1 | 99.9 | 90.3 | 88 | 96.1 | 96.4 | 84.3 | 96.9 | 98.34 ± 0.36 |
| CCCCCCCCc1ccc(CCC(N)(CO)CO)cc1 [Fingolimod] (max concentration tested 10000 nM) | 4.94 | 5.38 | 5.09 | 8.13 | 7.44 | 13.3 ± 9.3 | 5.79 ± 0.46 | 6.87 | 6.58 | 8.31 | 6.27 | 7.62 | 5.97 | 7.17 | 7.98 ± 1 | 101.6 ± 0.59 | 101 | 102 | 101 | 103 | 103 | 101 | 101 | 103 ± 2.5 |
| C[C@@H]1C[C@H]2[C@@H]3CCC4=CC(=O)C=C[C@]4(C)[C@@]3(F)[C@@H](O)C[C@]2(C)[C@@]1(O)C(=O)CO [Dexamethasone] (max concentration tested 10000 nM) | 0 | 0 | 0 | 0 | 0 | 0 | 0.0796 ± 0.11 | 0 | 0 | 0 | 4.78 | 0 | 2.91 | 0 | 1.35 ± 1.9 | 9.85 ± 6.5 | 11.7 | 3.98 | -11.7 | 22.9 | -11.8 | 6.77 | -7.28 | 16.5 ± 13 |
| CCOC(=O)CCNc1cc(N2CCc3ccccc3CC2)nc(-c2ccccn2)n1 [GSK-J4] (max concentration tested 100000 nM) | 8.17 | 4.79 | 6.13 | 7.1 | 7.09 | 3.11 ± 4.4 | 16.3 ± 0.36 | 15.9 | 14.6 | 14.4 | 14.1 | 14.8 | 16.3 | 15.2 | 13.4 ± 0.92 | 95.2 ± 0.48 | 99 | 96.1 | 99.4 | 97.1 | 95.8 | 100 | 96.5 | 97.2 ± 1.9 |
| Clc1ccc(Nc2nnc(Cc3ccncc3)c3ccccc23)cc1 [Vatalanib] (max concentration tested 10000 nM) | 0 | 0 | 0 | 0 | 0 | 0 | 0 | 1.77 | 0 | 0 | 0 | 0 | 1.52 | 0.0903 | 0 | 5.29 ± 6.4 | 12.3 | 6.33 | 11.8 | 1.01 | 5.92 | 10.3 | 13.4 | 2.66 ± 4.9 |
| COc1cc(O)c2c(c1)/C=C/C[C@H](O)[C@H](O)C(=O)/C=C\C[C@H](C)OC2=O [(5Z)-7-Oxozeaenol] (max concentration tested 10000 nM) | 2.39 | 0 | 0.979 | 0.659 | 1.01 | 2.79 ± 3 | 6.71 ± 1.1 | 2.24 | 6.93 | 1.02 | 7.1 | 6.52 | 1.67 | 7.92 | 3.4 ± 0.83 | 74.1 ± 6.8 | 39.8 | 68.6 | 29.8 | 70.6 | 73.1 | 26.6 | 76.9 | 51.8 ± 16 |
| CC(=O)[C@]1(O)Cc2c(O)c3c(c(O)c2[C@@H](O[C@H]2C[C@H](N)[C@H](O)[C@H](C)O2)C1)C(=O)c1ccccc1C3=O [Idarubicin] (max concentration tested 1000 nM) | 15.8 | 5.11 | 12.2 | 8.63 | 7.65 | 10.6 ± 0.28 | 23.5 ± 0.84 | 15.7 | 20.5 | 10.1 | 16.2 | 18.1 | 24.2 | 17.6 | 17.1 ± 2.4 | 99.5 ± 0.8 | 102 | 97.8 | 92.3 | 88 | 94.9 | 101 | 95.5 | 95.7 ± 1.7 |
